Source: PubChem BioAssay (NCI)
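48-hour exposure; five concentrations; linearly interpolated endpoints. GI50 marks 50% less growth. Definition used: TGI = concentration required for complete inhibition of growth.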

Assays:
Assay in all cases: DTP human tumour cell line panel, 48 h
[1] = tested on: NCI-H460 lung
[2] = tested on: T-47D breast
[3] = tested on: PC-3 prostate
[4] = tested on: HCT-116 colon
[5] = tested on: UACC-257 melanoma
[6] = tested on: A549 NSCLC
[7] = tested on: UACC-62 melanoma
[8] = tested on: SF-539 CNS

Compound	GI50 [1] [µM]	TGI [1] [µM]	GI50 [2] [µM]	TGI [2] [µM]	GI50 [3] [µM]	TGI [3] [µM]	GI50 [4] [µM]	TGI [4] [µM]	GI50 [5] [µM]	TGI [5] [µM]	GI50 [6] [µM]	TGI [6] [µM]	GI50 [7] [µM]	TGI [7] [µM]	GI50 [8] [µM]	TGI [8] [µM]
Nc1nc(N(Cc2ccccc2)c2ccccc2)c2cn[nH]c2n1	4.39	> 100	4.34	> 100	4.56	> 100	3.19	> 100	9.84	> 100	5.47	> 100	4.32	> 100	2.95	> 100
O=C(O)C(=Cc1ccc(-c2ccccc2)cc1)C(=O)O	–	35.7	–	34	–	27.6	–	24.7	–	25	–	> 58.8	–	26.1	–	19.3
Cc1cc(Cl)cc2c1NC(=O)C2(O)CC(=O)c1ccco1 (stereo unspecified)	–	> 100	–	> 100	–	> 100	–	> 100	–	> 100	–	> 100	–	67.5	–	> 100
COC(=O)Nc1nc2ccc(Oc3ccc(NC(=O)Nc4cc(C(F)(F)F)ccc4F)cc3)cc2s1	10.2	> 25	> 18	> 25	11.5	> 25	8.8	> 25	> 25	> 25	15	> 25	3.9	> 25	> 25	> 25
COc1ccc(-c2nc(-c3nc4ccc(Cl)cc4[nH]3)c3ccccn23)cc1	2.23	5.29	3.66	20.2	2.13	5.63	2.41	5.5	2.63	8.5	1.82	4.27	4.89	20.9	1.76	3.61
CC[C@@]1(c2ccccc2)C2=C(CC(C)(C)CC2=O)Nc2[nH]ncc21	> 100	> 100	> 100	> 100	> 100	> 100	> 100	> 100	> 100	> 100	> 100	> 100	> 100	> 100	> 100	> 100
O=S(=O)(NC1=NCCN1C(=S)SN1CCn2c1nsc2=S)c1cccc(Cl)c1	22.5	72.9	6.81	25.7	15.4	47.2	13.2	28.1	18.6	39.5	30.3	91.2	15.4	34.3	19.4	34.2
COc1cc2ncn(-c3cc(OCc4cccs4)c(C(N)=O)s3)c2cc1OC	1.06	> 10.5	6.4	> 25	3.43	> 25	1.68	> 25	3.15	> 25	1.87	> 17.5	1.33	> 16.8	1.23	> 16.8
CCCCCCCC[C@@H](O)CC(=O)N[C@@H](CC(N)=O)C(=O)N[C@@H](CCC(N)=O)C(=O)N[C@@H](CC(=O)c1cc(C)cc(O)c1C(=O)c1c(O)cccc1O)CC(C)C	3.29	18.3	1.15	4.51	0.31	47.9	0.303	1.78	0.45	4.68	5.31	> 100	0.317	1.89	0.253	0.783
O=C1c2cccc([N+](=O)[O-])c2C(=O)N1c1ncn[nH]1	–	> 100	–	> 100	–	> 100	–	> 100	–	> 100	–	> 100	–	> 100	–	36.8
CCCC(=O)OCC1OC(n2cnc3c(=S)nc[nH]c32)C(OC(=O)CCC)C1OC(=O)CCC (stereo unspecified)	8.13	> 100	0.794	> 100	3.72	> 100	4	> 100	10.7	> 100	38.1	> 100	1.91	> 100	3.53	> 100
COc1ccc(N2C(=O)/C(=C/c3ccc(N(CCC#N)CCC#N)cc3C)N=C2c2cc([N+](=O)[O-])ccc2Cl)cc1	–	> 56.2	–	> 100	–	> 46.4	–	29.3	–	> 56.2	–	> 72	–	> 46.4	–	7.22
O=C1c2ccccc2C(=O)N1CCc1ncc[nH]1	–	> 100	–	> 100	–	> 100	–	> 100	–	> 100	–	> 100	–	> 100	–	> 100
CC/C=C\C[C@@H](O)C/C=C1/C(=O)C=C[C@H]1C/C=C\CCCC(=O)OC	3.45	11.8	4.05	19	3.2	10.8	0.498	2.53	3.38	8.36	3.75	10.7	2.8	8.6	3.22	11.9
CCCn1c(=S)sc2c1nc(C)n1c(Nc3ccccc3)nnc21	3.5	13.8	1.63	8.25	4.04	34.5	4.43	17.7	3.36	36.1	6.18	> 100	3.09	18.9	7.45	30.3
O=C(O)c1nn(-c2ccccc2-c2n[nH]c(=O)[nH]c2=O)c(=O)[nH]c1=O	–	> 100	–	> 100	–	> 100	–	> 100	–	> 100	–	> 100	–	> 100	–	> 100
CC1CN1C(=O)NCCCCCCNC(=O)N1CC1C (stereo unspecified)	–	> 66.6	–	> 100	–	> 100	–	> 100	–	> 100	–	> 100	–	> 100	–	98.2
